Biological target: T1, IKKε (Homo sapiens, UniProt Q14164)
T1 construct: His-tag; made in house; host or cells: Sf9 insect cells
T1 sequence (Q14164 1-716): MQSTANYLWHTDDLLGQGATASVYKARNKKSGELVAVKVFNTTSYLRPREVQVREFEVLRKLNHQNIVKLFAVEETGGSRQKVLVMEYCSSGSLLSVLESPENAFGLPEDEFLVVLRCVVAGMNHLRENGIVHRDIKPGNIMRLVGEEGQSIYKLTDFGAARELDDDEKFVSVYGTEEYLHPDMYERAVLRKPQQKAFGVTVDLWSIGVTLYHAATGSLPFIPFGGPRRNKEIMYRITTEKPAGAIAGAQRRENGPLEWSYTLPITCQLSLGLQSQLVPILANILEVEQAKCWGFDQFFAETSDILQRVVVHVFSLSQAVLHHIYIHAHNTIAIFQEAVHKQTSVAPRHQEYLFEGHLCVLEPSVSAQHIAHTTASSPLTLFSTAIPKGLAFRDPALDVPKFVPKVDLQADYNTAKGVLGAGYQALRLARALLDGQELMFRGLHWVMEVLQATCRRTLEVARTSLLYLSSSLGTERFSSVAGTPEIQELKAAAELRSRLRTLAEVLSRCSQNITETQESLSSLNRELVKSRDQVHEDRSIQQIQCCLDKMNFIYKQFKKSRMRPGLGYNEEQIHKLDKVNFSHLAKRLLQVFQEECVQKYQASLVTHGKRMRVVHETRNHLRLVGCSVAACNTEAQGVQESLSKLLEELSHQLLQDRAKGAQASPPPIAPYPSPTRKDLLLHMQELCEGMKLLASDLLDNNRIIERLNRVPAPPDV
Assay: In-vitro IKKε kinase assay ([γ33]ATP filter-plate)
Format: biochemical
Settings: text bins; read-out: IC50 for inhibition of the kinase activity of IKKε
Summary of the method: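 His-tagged Sf9-expressed kinases at 0.1 or 0.02 μg/ml (TBK1) and 0.1 or 0.015 μg/ml (IKKε) for normal and sensitized formats, with myelin basic protein or casein substrate. ATP was at 2×Km (60 μM TBK1, 32 μM IKKε) plus 0.3 μCi [γ33]ATP. Reactions ran 30-45 min, were captured on P-81 filters, and counts were normalized to DMSO.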

First: CN1CCN(c2ccc(Nc3nccc(-c4cc(C#N)cc(OCc5ccccc5)c4)n3)cc2)CC1 [Example 244, 3-(Benzyloxy)-5-(2-{[4-(4-methylpiperazin-1-yl)phenyl]amino}pyrimidin-4-yl)benzonitrile]
Second: CC(=O)Nc1cccc(Nc2nccc(-c3ccc(OCc4ccccc4)c(C#N)c3)n2)c1 [Example 185, N-[3-({4-[4-(Benzyloxy)-3-cyanophenyl]pyrimidin-2-yl}amino)phenyl] acetamide]
The IC50 of the first is higher: 50 to 500 nM for the first, 5 to 50 nM for the second. The second is the more potent here.

First: N#Cc1cc(-c2ccnc(Nc3cccc(-n4ccnc4)c3)n2)ccc1OC1CCOCC1 [compound 560, 5-(2-{[3-(1H-Imidazol-1-yl)phenyl]amino}pyrimidin-4-yl)-2-(tetrahydro-2H-pyran-4-yloxy)benzonitrile]
Second: CC(C)N1CCC(Oc2ccc(-c3ccnc(Nc4ccc(N5CCOCC5)cc4)n3)cc2C#N)CC1 [Example 227, 5-(2-{[4-(Morpholin-4-yl)phenyl]amino}pyrimidin-4-yl)-2-{[1-(propan-2-yl)piperidin-4-yl]oxy}benzonitrile]
The IC50 of the first is lower: under 5 nM for the first, 50 to 500 nM for the second. The first is the more potent here.

First: CN(C)CC(=O)N1CCC(Oc2ccc(-c3ccnc(Nc4ccc(N5CCOCC5)cc4)n3)cc2C#N)CC1 [Example 160, 2-{[1-(N,N-dimethylglycyl)piperidin-4-yl]oxy}-5-(2-{[4-(morpholin-4-yl)phenyl]amino}pyrimidin-4-yl)benzonitrile]
Second: C[C@@H](O)C(=O)N1CCC(Oc2ccc(-c3ccnc(Nc4ccc(N5CCOCC5)cc4)n3)cc2C#N)CC1 [Example 140, 2-({1-[(2R)-2-hydroxypropanoyl]piperidin-4-yl}oxy)-5-(2-{[4-(morpholin-4-yl)phenyl]amino}pyrimidin-4-yl)benzonitrile]
The IC50 of the first is higher: 50 to 500 nM for the first, 5 to 50 nM for the second.

`CC(C)C(=O)Nc1ccc(-c2ccnc(Nc3cccc(OCCCN4CCOCC4)c3)n2)cc1C#N` [compound 429, N-{2-cyano-4-[2-({3-[3-(morpholin-4-yl)propoxy]phenyl}amino)pyrimidin-4-yl]phenyl}-2-methylpropanamide] and `CC(C)C(=O)Nc1ccc(-c2ccnc(Nc3ccc(OCCCN4CCOCC4)cc3)n2)cc1C#N` [compound 430, N-{2-cyano-4-[2-({4-[3-(morpholin-4-yl)propoxy]phenyl}amino)pyrimidin-4-yl]phenyl}-2-methylpropanamide] fall in the same range of IC50: 5 to 50 nM for the first, 5 to 50 nM for the second.

Compared with `N#Cc1cc(-c2ccnc(Nc3ccc(N4CCOCC4)cc3)n2)ccc1NC(=O)NC1CCCCC1` [Example 61, 1-[2-cyano-4-(2-{[4-(morpholin-4-yl)phenyl]amino}pyrimidin-4-yl)phenyl]-3-cyclohexylurea], `CC(C)C(=O)Nc1ccc(-c2ccnc(Nc3ccc(N4CCOCC4)cc3)n2)cc1C#N` [Example 267, N-[2-Cyano-4-(2-{[4-(morpholin-4-yl)phenyl]amino}pyrimidin-4-yl)phenyl]-2-methylpropanamide] is lower in IC50: 50 to 500 nM for the first, 5 to 50 nM for the second. The second is the more potent here.

First: COc1ccc(-c2ccnc(Nc3ccc(S(N)(=O)=O)cc3)n2)cc1C#N [compound 323, 4-{[4-(3-Cyano-4-methoxyphenyl)pyrimidin-2-yl]amino} benzenesulfonamide]
Second: COc1ccc(-c2ccnc(Nc3ccc(S(=O)(=O)N4CCN(C)CC4)cc3)n2)cc1C#N [compound 308, 2-Methoxy-5-[2-({4-[(4-methylpiperazin-1-yl)sulfonyl]phenyl}amino)pyrimidin-4-yl]benzonitrile]
The IC50 of the first is lower: 5 to 50 nM for the first, 50 to 500 nM for the second. The first is the more potent here.

First: COc1cc(NC(=O)NCCN(C)C)cc(Nc2nccc(-c3ccc(OC)c(C#N)c3)n2)c1 [compound 360, 1-(3-{[4-(3-Cyano-4-methoxyphenyl)pyrimidin-2-yl]amino}-5-methoxyphenyl)-3-[2-(dimethylamino)ethyl]urea]
Second: COc1cc(NC(=O)C2CCCC2)cc(Nc2nccc(-c3ccc(OC)c(C#N)c3)n2)c1 [compound 362, N-(3-{[4-(3-Cyano-4-methoxyphenyl)pyrimidin-2-yl]amino}-5-methoxyphenyl) cyclopentane-carboxamide]
The IC50 of the first is higher: 50 to 500 nM for the first, 5 to 50 nM for the second. The second is the more potent here.

Compared with `N#Cc1cc(-c2ccnc(Nc3ccc(N4CCOCC4)cc3)n2)ccc1OCC1CCN(C(=O)C2C[C@H]2F)CC1` (stereo partly drawn) [Example 108, 2-[(1-{[(2R)-2-fluorocyclopropyl]carbonyl}piperidin-4-yl)methoxy]-5-(2-{[4-(morpholin-4-yl)phenyl]amino}pyrimidin-4-yl)benzonitrile], `CC(=O)N1CCCC(COc2ccc(-c3ccnc(Nc4ccc(N5CCOCC5)cc4)n3)cc2C#N)C1` (stereo not shown) [Example 161] is lower in IC50: 50 to 500 nM for the first, 5 to 50 nM for the second.

First: CCN1CCN(c2ccc(-c3ccnc(Nc4ccc(N5CCNC(=O)C5)c(OC)c4)n3)cc2C#N)CC1 [Example 36, 2-(4-Ethylpiperazin-1-yl)-5-(2-{[3-methoxy-4-(3-oxopiperazin-1-yl)phenyl]amino}pyrimidin-4-yl)benzonitrile]
Second: COc1ccc(-c2ccnc(Nc3ccc(N4CCCC4C(=O)N(C)C)c(OC)c3)n2)cc1C#N (stereo not shown) [Example 87]
The IC50 of the first is higher: 50 to 500 nM for the first, 5 to 50 nM for the second.

First: CC(C)C(=O)Nc1ccc(-c2ccnc(Nc3ccc(OCCN4CCOCC4)cc3)n2)cc1C#N [compound 431, N-{2-cyano-4-[2-({4-[2-(morpholin-4-yl)ethoxy]phenyl}amino)pyrimidin-4-yl]phenyl}-2-methylpropanamide]
Second: CC(C)C(=O)Nc1ccc(-c2ccnc(Nc3ccc(C(C)CN4CCOCC4)cc3)n2)cc1C#N (stereo not shown) [compound 452, N-{2-cyano-4-[2-({4-[1-(morpholin-4-yl)propan-2-yl]phenyl}amino)pyrimidin-4-yl]phenyl}-2-methylpropanamide]
The IC50 of the first is lower: 5 to 50 nM for the first, 50 to 500 nM for the second.

`COc1ccc(-c2ccnc(Nc3cccc(S(=O)(=O)NCCO)c3)n2)cc1C#N` [compound 309, 3-{[4-(3-Cyano-4-methoxyphenyl)pyrimidin-2-yl]amino}-N-(2-hydroxyethyl) benzenesulfonamide] and `COc1ccc(-c2ccnc(Nc3cccc(NC(=O)NC4CCCC4)c3)n2)cc1C#N` [compound 348, 1-(3-{[4-(3-Cyano-4-methoxyphenyl)pyrimidin-2-yl]amino}phenyl)-3-cyclopentylurea] fall in the same range of IC50: 50 to 500 nM for the first, 50 to 500 nM for the second.

First: N#Cc1cc(-c2ccnc(Nc3ccc(N4CCOCC4)cc3)n2)ccc1OCCC1CCNCC1 [compound 472, 5-(2-{[4-(morpholin-4-yl)phenyl]amino}pyrimidin-4-yl)-2-[2-(piperidin-4-yl)ethoxy] benzonitrile]
Second: CC(=O)N1CCC(Oc2ccc(-c3ccnc(Nc4ccc(N5CCOCC5)cc4)n3)cc2C#N)C1 (stereo not shown) [Example 195, 2-[(1-Acetylpyrrolidin-3-yl)oxy]-5-(2-{[4-(morpholin-4-yl)phenyl]amino}pyrimidin-4-yl)benzonitrile]
The IC50 of the first is higher: 50 to 500 nM for the first, 5 to 50 nM for the second. The second is the more potent here.

`CC(C)(COc1ccc(-c2ccnc(Nc3ccc(N4CCOCC4)cc3)n2)cc1C#N)C(=O)N1CCOCC1` [compound 459, 2-[2,2-dimethyl-3-(morpholin-4-yl)-3-oxopropoxy]-5-(2-{[4-(morpholin-4-yl)phenyl]amino}pyrimidin-4-yl)benzonitrile] and `C[C@@H](O)C(=O)N1CCC(Oc2ccc(-c3ccnc(Nc4ccc(N5CCOCC5)cc4)n3)cc2C#N)C1` (stereo partly drawn) [Example 142, 2-({1-[(2R)-2-hydroxypropanoyl]pyrrolidin-3-yl}oxy)-5-(2-{[4-(morpholin-4-yl)phenyl]amino}pyrimidin-4-yl)benzonitrile] fall in the same range of IC50: 50 to 500 nM for the first, 50 to 500 nM for the second.

`CN1CCN(CC(=O)N2CCC(Oc3ccc(-c4ccnc(Nc5ccc(N6CCOCC6)cc5)n4)cc3C#N)CC2)CC1` [Example 240, 2-({1-[(4-methylpiperazin-1-yl)acetyl]piperidin-4-yl}oxy)-5-(2-{[4-(morpholin-4-yl)phenyl]amino}pyrimidin-4-yl)benzonitrile] and `COc1ccc(-c2ccnc(Nc3ccc(OC)c(OC4CCN(C)CC4)c3)n2)cc1C#N` [Example 289, 2-Methoxy-5-[2-({4-methoxy-3-[(1-methylpiperidin-4-yl)oxy]phenyl}amino)pyrimidin-4-yl]benzonitrile] fall in the same range of IC50: 50 to 500 nM for the first, 50 to 500 nM for the second.

First: CC(=O)Nc1cccc(Nc2nccc(-c3cccc(C#N)c3)n2)c1 [Example 277, N-(3-{[4-(3-Cyanophenyl)pyrimidin-2-yl]amino}phenyl) acetamide]
Second: CCN(CC)CCc1ccc(Nc2nccc(-c3ccc(NC(=O)C(C)C)c(C#N)c3)n2)cc1 [compound 454, N-{2-cyano-4-[2-({4-[2-(diethylamino)ethyl]phenyl}amino)pyrimidin-4-yl]phenyl}-2-methylpropanamide]
The IC50 of the first is higher: 50 to 500 nM for the first, 5 to 50 nM for the second.

`N#Cc1cc(-c2ccnc(Nc3ccc(F)c(F)c3)n2)ccc1O[C@@H]1CCN(C(=O)CO)C1` [compound 582, 5-{2-[(3,4-Difluorophenyl)amino]pyrimidin-4-yl}-2-{[(3R)-1-(hydroxyacetyl)pyrrolidin-3-yl]oxy}benzonitrile] was tested, and the IC50 was 5 to 50 nM.
